From ChEMBL document CHEMBL1128949, “Novel tricyclic aminoacetyl and sulfonamide inhibitors of Ras farnesyl protein transferase” (Bioorg Med Chem Lett, 1996)

target: T1, Protein farnesyltransferase (Homo sapiens, UniProt P49354+P49356); assay: Inhibitory activity against protein farnesyltransferase.; format: protein-complex assay

| IC50 [µM] | SMILES |
| --- | --- |
| 4.8 | CCCCS(=O)(=O)N1CCC(=C2c3ccc(Cl)cc3CCc3cccnc32)CC1 |
| 10.6 | COC(=O)c1ccccc1S(=O)(=O)N1CCC(=C2c3ccc(Cl)cc3CCc3cccnc32)CC1 |
| > 11 | O=C(O)c1ccccc1S(=O)(=O)N1CCC(=C2c3ccc(Cl)cc3CCc3cccnc32)CC1 |
| 9.6 | O=C(CNCc1ccccc1)N1CCC(=C2c3ccc(Cl)cc3CCc3cccnc32)CC1 |
| 13 | O=S(=O)(c1cccs1)N1CCC(=C2c3ccc(Cl)cc3CCc3cccnc32)CC1 |
| 1.2 | O=C(N[C@H](Cc1ccc(O)cc1)C(=O)N1CCC(=C2c3ccc(Cl)cc3CCc3cccnc32)CC1)OCc1ccccc1 |
| 11.4 | CC1(C)C2CCC1(CS(=O)(=O)N1CCC(=C3c4ccc(Cl)cc4CCc4cccnc43)CC1)C(=O)C2 (centres undefined) |
| > 12 | O=S(=O)(c1ccc2ccccc2c1)N1CCC(=C2c3ccc(Cl)cc3CCc3cccnc32)CC1 |
| 3.6 | O=C([C@@H](Cc1c[nH]cn1)N1C(=O)c2ccccc2C1=O)N1CCC(=C2c3ccc(Cl)cc3CCc3cccnc32)CC1 |
| 2 | O=C(CN1C(=O)c2ccccc2S1(=O)=O)N1CCC(=C2c3ccc(Cl)cc3CCc3cccnc32)CC1 |
| > 10 | O=C(CNC(c1ccccc1)(c1ccccc1)c1ccccc1)N1CCC(=C2c3ccc(Cl)cc3CCc3cccnc32)CC1 |
| 22.3 | NCC(=O)N1CCC(=C2c3ccc(Cl)cc3CCc3cccnc32)CC1 |
| 1 | O=S(=O)(Cc1ccccc1)N1CCC(=C2c3ccc(Cl)cc3CCc3cccnc32)CC1 |
| 4.7 | CSCC[C@H](C(=O)N1CCC(=C2c3ccc(Cl)cc3CCc3cccnc32)CC1)N1C(=O)c2ccccc2C1=O |
| 8.2 | CC1(C)C2CCC1(CS(=O)(=O)N1CCC(=C3c4ccc(Cl)cc4CCc4cccnc43)CC1)C(O)C2 (centres undefined) |
| 8.8 | O=C(NCC(=O)N1CCC(=C2c3ccc(Cl)cc3CCc3cccnc32)CC1)c1ccccc1 |

| IC50 [µM] | SMILES |
| --- | --- |
| > 10 | O=C([C@@H](Cc1ccccc1)N1C(=O)c2ccccc2C1=O)N1CCC(=C2c3ccc(Cl)cc3CCc3cccnc32)CC1 |
| 4.8 | O=C(CC[C@H](C(=O)N1CCC(=C2c3ccc(Cl)cc3CCc3cccnc32)CC1)N1C(=O)c2ccccc2C1=O)Nc1ccccc1 |
| 3.05 | COc1ccc(CSC[C@@H](NC(=O)OC(C)(C)C)C(=O)N2CCC(=C3c4ccc(Cl)cc4CCc4cccnc43)CC2)cc1 |
| 8.4 | O=C(Cc1ccccc1)NCC(=O)N1CCC(=C2c3ccc(Cl)cc3CCc3cccnc32)CC1 |
| > 12 | O=[N+]([O-])c1ccc(S(=O)(=O)N2CCC(=C3c4ccc(Cl)cc4CCc4cccnc43)CC2)cc1 |
| > 10 | CC(C)C[C@H](C(=O)N1CCC(=C2c3ccc(Cl)cc3CCc3cccnc32)CC1)N1C(=O)c2ccccc2C1=O |
| 6.8 | CC(C)(C)OC(=O)NCC(=O)N1CCC(=C2c3ccc(Cl)cc3CCc3cccnc32)CC1 |
| 1.9 | CN(C)S(=O)(=O)N1CCC(=C2c3ccc(Cl)cc3CCc3cccnc32)CC1 |
| 5.2 | CCS(=O)(=O)N1CCC(=C2c3ccc(Cl)cc3CCc3cccnc32)CC1 |
| 4.6 | C[C@H](C(=O)N1CCC(=C2c3ccc(Cl)cc3CCc3cccnc32)CC1)N1C(=O)c2ccccc2C1=O |
| 8.5 | O=C(NCC(=O)N1CCC(=C2c3ccc(Cl)cc3CCc3cccnc32)CC1)OCc1ccccc1 |
| 1.9 | CS(=O)(=O)N1CCC(=C2c3ccc(Cl)cc3CCc3cccnc32)CC1 |
| 6.29 | COc1ccc(CSC[C@@H](N)C(=O)N2CCC(=C3c4ccc(Cl)cc4CCc4cccnc43)CC2)cc1 |
| 0.66 | O=C(CN1C(=O)c2ccccc2C1=O)N1CCC(=C2c3ccc(Cl)cc3CCc3cccnc32)CC1 |
| > 12 | CCCCCCCCS(=O)(=O)N1CCC(=C2c3ccc(Cl)cc3CCc3cccnc32)CC1 |
| 1 | C=CS(=O)(=O)N1CCC(=C2c3ccc(Cl)cc3CCc3cccnc32)CC1 |

target: T1, Protein farnesyltransferase; assay: Inhibitory activity against Protein farnesyltransferase (Inactive); format: protein-complex assay

| IC50 | SMILES |
| --- | --- |
| Not Active | CCCCCCCCCCS(=O)(=O)N1CCC(=C2c3ccc(Cl)cc3CCc3cccnc32)CC1 |
| Not Active | CCCCCCCCCCCS(=O)(=O)N1CCC(=C2c3ccc(Cl)cc3CCc3cccnc32)CC1 |
